Data taken from patent publication US12691109B2, “Bifunctional aggregation-induced emission luminogen for monitoring and killing of multidrug-resistant bacteria” (The Hong Kong University of Science and Technology, priority 2018, dated 2026).
“Also recorded” adds a separate entry of the source.

Assays:
E. coli [1] = assay: Light-enhanced bacteria killing, plate counting method; assay type: cell-based
Experimental: (§1) FIGS. 15C-F are graphs depicting bacteria survival rates for bacteria that were incubated with TriPE-NT (10 μM) for 10 min, the bacteria suspensions (50 μL) were plated on agar plates and treated by white-light illumination (4 mW cm^−2) for 0, 2 and 30 min respectively. FIG. 15C is a graph plotting survival rate versus time of E. coli and MDR E. coli. FIG. 15D is a graph plotting survival rate versus time of K. pneumoniae and MDR K. pneumoniae. FIG. 15E is a graph plotting survival rate versus time of S. epidermidis and MDR S. epidermidis. FIG. 15F is a graph plotting survival rate versus time of S. aureus and MDR S. aureus.
(§2) FIGS. 16A-B are graphs depicting bacteria survival rates for bacteria that were incubated with TriPE-NT (0, 5, 10 μM) for 0 (S-0) and 10 (S-10) min, the bacteria suspensions (50 μL) were plated on agar plates and treated by white-light illumination (4 mW cm^−2) for 2 (I-2), 10 (I-10) and 30 (I-30) min respectively. FIG. 16A is a graph plotting the survival rate versus time of E. coli. FIG. 16B is a graph plotting the survival rate versus time of S. epidermidis.
(§3) The bacteria killing effect of TriPE-NT was evaluated on both wild and clinically isolated MDR bacteria by a traditional plate counting method. First, E. coli and S. epidermidis, as the representative of Gram-negative (G−) and Gram-positive (G+) bacteria, were used to determine the effective bactericidal concentration and illumination time. The bacteria were incubated with TriPE-NT (0, 5, 10 μM) for 0 and 10 min, the bacteria suspensions (50 μL) were plated on agar plates and treated by white-light illumination (4 mW cm^−2) for 2, 10 and 30 min respectively (FIGS. 16A-B). […] Thus, 10 μM TriPE-NT and light irradiation for 2 min or 30 min were set as experimental conditions in the following experiments.

S. epidermidis [2] = assay: as above; assay type: cell-based; conditions: 5 μM, light irradiation of 2 min
Experimental: as §1, §2, §3

K. pneumoniae = assay: as above; assay type: cell-based
Experimental: as §1, §3

MDR E. coli [3] = assay: as above; assay type: cell-based
Experimental: as §1, §3

MDR K. pneumoniae = assay: as above; assay type: cell-based
Experimental: as §1, §3

MDR S. aureus = assay: as above; assay type: cell-based
Experimental: as §1, §3

MDR S. epidermidis [4] = assay: as above; assay type: cell-based; conditions: in darkness, 10 μM TriPE-NT
Experimental: as §1, §3

S. aureus = assay: as above; assay type: cell-based
Experimental: as §1, §3

E. coli-infected wounds = assay: Bacteria-infected full-thickness skin wound model on rats; assay type: in vivo, Wistar rats
Excerpt: (§4) FIGS. 26A-D show In vivo evaluation of TriPE-NT in treatment of bacteria-infected wounds on rats. FIG. 26A illustrates the process of establishing bacteria-infected full-thickness skin wound models on rats. […] FIG. 26C is a graph plotting the proportion of the E. coli and MDR E. coli infected wound area on day 3 and day 7 after the injury. FIG. 26D is a graph plotting the proportion of the S. epidermidis and MDR S. epidermidis infected wound area on day 3 and day 7 after the injury (each experiment was repeated at least 5 times).
(§5) To further evaluate the anti-bacterial activity of TriPE-NT in vivo, the performance of TriPE-NT on bacteria-infected wounds of rats was tested. E. coli-, MDR E. coli-, S. epidermidis or MDR S. epidermidis-infected, full-thickness skin wounds were established on the dorsal skin of the Wistar rats (FIG. 26A). The macroscopic appearance of the healing processes of the wounds was captured at different time points (FIG. 26B).
(§6) Hematoxylin and eosin (HE) staining was carried out for evaluating the wound healing of the sectioned tissues of the E. coli-, MDR E. coli-, S. epidermidis- and MDR S. epidermidis-infected wounds on the Wistar rats on day 3 and day 7 post-injury (FIG. 28). […] Fibroblasts can secret collagens which accelerate wound reconstruction, that means the TriPE-NT plus light irradiation can promote the wound healing.

[5] = test system: MDR E. coli-infected wounds; assay: as above; assay type: in vivo, Wistar rats
Excerpt: as §4, §5, §6

[6] = test system: MDR S. epidermidis-infected wounds; assay: as above; assay type: in vivo, Wistar rats
Excerpt: as §4, §5, §6

[7] = test system: S. epidermidis-infected wounds; assay: as above; assay type: in vivo, Wistar rats
Excerpt: as §4, §5, §6

E. coli [8] = assay: Morphological changes of bacteria by FE-SEM and FEHR-TEM; assay type: cell-based
Excerpt: (§7) FIGS. 24A-E show images of TriPE-NT-induced morphological changes of E. coli, MDR E. coli, S. epidermidis and MDR S. epidermidis with white light irradiation by FE-SEM and FEHR-TEM, bacteria without treatment were set as controls. […] FIG. 24D is a graph plotting elemental curve measured on the super-thin slices of TriPE-NT-treated E. coli from the region marked by the rectangle in FIG. 24C. FIG. 24 E is a graph plotting the elemental curve measured on the super-thin slices of TriPE-NT-treated S. epidermidis from the region marked by rectangle in FIG. 24C.
(§8) To gain more insights into the TriPE-NT-bacteria interactions, FE-SEM and field-emission high resolution transmission electron microscope (FEHR-TEM) were used to visualize the morphological changes of the bacteria under TriPE-NT treatment, selecting E. coli (G−), MDR E. coli (G−), and S. epidermidis (G+), MDR S. epidermidis (G+) as representatives.

MDR E. coli [9] = assay: as above; assay type: cell-based
Excerpt: as §7, §8

MDR S. epidermidis [10] = assay: as above; assay type: cell-based; conditions: TriPE-NT without or with light irradiation (4 mW cm^−2, 30 min)
Excerpt: as §7, §8

S. epidermidis [11] = assay: as above; assay type: cell-based; conditions: TriPE-NT without or with light irradiation (4 mW cm^−2, 30 min)
Excerpt: as §7, §8

[12] = 10 μM, white light 4 mW cm^−2, 30 min
[13] = day 3 post-injury, TriPE-NT plus light vs control
[14] = day 3 post-injury, TriPE-NT plus light vs untreated
[15] = day 7 post-injury, TriPE-NT plus light (4 mW cm^−2, 30 min) vs control
[16] = day 7 post-injury, TriPE-NT plus light vs control
[17] = TriPE-NT in the absence of white light
[18] = TriPE-NT with light irradiation

COc1ccc(C(=Cc2ccc(-c3ccc4c5c(cccc35)C(=O)N(CCCCn3c[n+](Cc5ccc(F)cc5F)cn3)C4=O)cc2)c2ccc(OC)cc2)cc1 [TriPE-NT]
E. coli killed (E. coli [1]; [12]): killed all and all
survival rate of E. coli (E. coli [1]; in darkness, 10 μM TriPE-NT): approximately 6.8±0.6%
S. epidermidis killed (S. epidermidis [2]): all S. epidermidis were killed
K. pneumoniae killed (K. pneumoniae; [12]): > 90%
survival rate of K. pneumoniae (K. pneumoniae; in darkness, 10 μM TriPE-NT): ~59.9±6.5%
MDR E. coli killed (MDR E. coli [3]; [12]): more than 96%
survival rate of MDR E. coli (MDR E. coli [3]; in darkness, 10 μM TriPE-NT): ~14.1±1.4%
MDR K. pneumoniae killed (MDR K. pneumoniae; [12]): > 61%
survival rate of MDR K. pneumoniae (MDR K. pneumoniae; in darkness, 10 μM TriPE-NT): ~74.4±3.7%
MDR S. aureus killed (MDR S. aureus; [12]): > 97%
survival rate of MDR S. aureus (MDR S. aureus; in darkness, 10 μM TriPE-NT): ~22.4±1.9%
killing of MDR S. epidermidis (MDR S. epidermidis [4]): killed nearly all
S. aureus killed (S. aureus; [12]): > 98%
survival rate of S. aureus (S. aureus; in darkness, 10 μM TriPE-NT): ~8.9±1.1%
wound size, E. coli-infected wounds (E. coli-infected wounds; [13]): no apparent difference
HE staining of wound tissue, invaded lymphocytes, E. coli-infected wounds (E. coli-infected wounds; [14]): reduced the inflammatory reactions
wound size, E. coli-infected wounds (E. coli-infected wounds; [15]): more apparent reduction of wound size
wound size, MDR E. coli-infected wounds [5, 13]: no apparent difference
HE staining of wound tissue, invaded lymphocytes, MDR E. coli-infected wounds [5, 14]: reduced the inflammatory reactions
wound size, MDR E. coli-infected wounds [5, 15]: significantly smaller
wound size, MDR S. epidermidis-infected wounds [6, 13]: no apparent difference
HE staining of wound tissue, invaded lymphocytes, MDR S. epidermidis-infected wounds [6, 14]: reduced the inflammatory reactions
wound size, MDR S. epidermidis-infected wounds [6, 15]: significantly smaller sizes
HE staining of wound tissue, MDR S. epidermidis-infected wounds [6, 16]: appearance of fibroblasts and newly formed squamous epithelial layers
wound size, S. epidermidis-infected wounds [7, 13]: no apparent difference
HE staining of wound tissue, invaded lymphocytes, S. epidermidis-infected wounds [7, 14]: reduced the inflammatory reactions
wound size, S. epidermidis-infected wounds [7, 15]: more apparent reduction of wound size
HE staining of wound tissue, S. epidermidis-infected wounds [7, 16]: appearance of fibroblasts and newly formed squamous epithelial layers; also recorded: appearance of hair follicles
morphology of E. coli (E. coli [8]; [17]): obvious rough surface and damaged cell wall
morphology of E. coli (E. coli [8]; [18]): cell wall fragmentations
morphology of MDR E. coli (MDR E. coli [9]; [17]): obvious rough surface and damaged cell wall
morphology of MDR E. coli (MDR E. coli [9]; [18]): cell wall fragmentations
morphology of MDR S. epidermidis (MDR S. epidermidis [10]): wrinkled bacterial cell wall
morphology of S. epidermidis (S. epidermidis [11]): wrinkled bacterial cell wall
